Where a chain is given by its changes, count along the chain named. Square brackets hold non-standard residues; d marks the D form. Peptide text beside a SMILES is read from it. pS = N[C@@H](COP(=O)(O)O)C(=O)O
Legend:
Type in all cases: binding
14-3-3ζ = target: T1, 14-3-3ζ (Homo sapiens, UniProt P63104); assay: ITC of Cby peptides titrated into 14-3-3ζ; conditions: for Kd: 25°C (298.15 K); for n (binding stoichiometry of monomeric 14-3-3 and Cby peptide): 25°C; for T∆S / ∆G / ∆H / TΔS / ΔG / ΔH: 298.15 K; for T∆S / ∆G / ∆H: duplicate set (S1 Table); for TΔS / ΔG / ΔH: pH 6.8, Table 1 set of duplicate experiments
T1 construct: Both full-length 14-3-3ζ and 14-3-3ζΔC12 were expressed as N-terminally His-tagged protein; His tag (TEV-cleavable) (N, cleaved yes); made in house; host or cells: Escherichia coli BL21 (DE3) pLysS
T1 sequence (P63104 1-245): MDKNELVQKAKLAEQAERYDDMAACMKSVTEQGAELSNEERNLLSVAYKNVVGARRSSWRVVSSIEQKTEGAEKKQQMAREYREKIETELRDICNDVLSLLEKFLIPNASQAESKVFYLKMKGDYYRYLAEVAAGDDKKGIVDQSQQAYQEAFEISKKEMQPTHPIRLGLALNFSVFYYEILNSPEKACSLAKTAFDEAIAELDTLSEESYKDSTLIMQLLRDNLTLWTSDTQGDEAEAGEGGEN
Text: (§1) The human14-3-3ζ ORF purchased from GeneCopoeia was transferred into Gateway pDEST17 vector (Invitrogen). The 14-3-3ζΔC12, where the 12 C-terminal residues were deleted, was then generated from the full-length construct using QuikChange II Site-Directed Mutagenesis Kit (Strategene). Both full-length 14-3-3ζ and 14-3-3ζΔC12 were expressed as N-terminally His-tagged protein in Escherichia coli (E. coli) BL21 (DE3) pLysS in M9 medium. For unlabeled protein, protein expression was induced at an O.D.600 of 0.9 by adding 0.75 mM IPTG at 18°C for 24 h. The ^15N, ^13C, ^2H labeled 14-3-3ζΔC12 was produced by growing E. coli in deuterated M9 medium. Cells adapted to 70% D2O were used to inoculate a 1 L culture of M9 prepared in 100% D2O. Cells were grown at 37°C and overexpression was induced at an O.D.600 of 0.6 with 0.75 mM IPTG. After a 60-h induction at 18°C, the cells were harvested. All 14-3-3ζ constructs used in this study were purified from the crude lysate by affinity chromatography using Ni Sepharose Fast Flow beads (Amersham Biosciences). The tag was then cleaved by overnight incubation with His-tagged tobacco etch virus (TEV) protease at 25°C. The cleaved 14-3-3ζ, which retains an N-terminal glycine, was purified by passing the mixture through Ni Sepharose Fast Flow beads. The final yields for the 14-3-3ζ proteins were ~50 mg per L of M9 media (including deuterated media).
(§2) The Cby peptides used in this study were purchased from GenScript USA Inc. and the TUFTS University Core Facility. From GenScript USA Inc.: Cby 13-mer (NH2-^12KTPPRKSASLSNL^24-COOH), Cby S20D 13-mer (NH2-^12KTPPRKSADLSNL^24-COOH), Cby S20E 13-mer (NH2-^12KTPPRKSAELSNL^24-COOH), pCby 13-mer (NH2-^12KTPPRKSApSLSNL^24-COOH) and pCby 18-mer ((NH2-^12KTPPRKSApSLSNLHSLDR^29-COOH). From TUFTS: pCby 7-mer (Ac-^16RKSApSLS^22-NH2), pCby 11-mer (NH2-^12KTPPRKSApSLS^22-NH2), pCby S22P 7-mer (Ac-^16RKSApSLP^22-NH2), pCby S22P 13-mer (NH2-^12KTPPRKSApSLPNL^24-COOH) and pCby S22P 18-mer ([…]). Peptides were dissolved and dialyzed in 50 mM sodium phosphate, 100 mM NaCl at pH 6.8 for ITC and NMR experiments.
(§3) ITC experiments were performed on a VP-ITC instrument (MicroCal) at 25°C. The protein and peptide samples were dialyzed into a buffer containing 50 mM sodium phosphate, 100 mM NaCl, 1 mM DTT at pH 6.8 and degassed before the experiments. In a typical experiment, 5 μL aliquots of ~1–2 mM peptide were titrated stepwise into the 1.4 mL sample cell containing ~100–200 μM 14-3-3ζ. The association constant (Ka), molar binding stoichiometry (n) and the binding enthalpy (ΔH), entropy (ΔS) and Gibbs free energy (ΔG) were determined by fitting the binding isotherm to a one-site model with MicroCal Origin7 software. All ITC experiments were performed in duplicate. A duplicate set of thermodynamic derived binding parameters are found in S1 Table. Peptide and protein concentrations were determined from amino acid analysis (Amino Acid Analysis Facility, SickKids, Toronto, ON).

14-3-3ζΔC12 = target: T2, 14-3-3ζΔC12 (Homo sapiens, UniProt P63104); assay: ITC of Cby peptides titrated into 14-3-3ζΔC12; conditions: 14-3-3ζΔC12 in ITC cell; for n (binding stoichiometry of monomeric 14-3-3 and Cby peptide): 25°C
T2 construct: The 14-3-3ζΔC12, where the 12 C-terminal residues were deleted, was then generated from the full-length construct; His tag (TEV-cleavable) (N, cleaved yes); made in house; host or cells: Escherichia coli BL21 (DE3) pLysS
T2 sequence (P63104 1-233 limits assumed): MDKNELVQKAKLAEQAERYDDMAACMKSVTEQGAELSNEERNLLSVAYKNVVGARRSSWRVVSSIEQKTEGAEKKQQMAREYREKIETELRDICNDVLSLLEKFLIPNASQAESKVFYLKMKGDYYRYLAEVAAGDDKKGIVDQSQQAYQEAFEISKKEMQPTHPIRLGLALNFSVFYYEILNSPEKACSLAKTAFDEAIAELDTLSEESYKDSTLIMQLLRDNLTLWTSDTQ
Text: as §1, §2, §3

14-3-3ζ K49A = target: T3, 14-3-3ζ K49A (Homo sapiens, UniProt P63104, K49A); assay: ITC of Cby peptides titrated into 14-3-3ζ K49A; conditions: for n (binding stoichiometry of monomeric 14-3-3 and Cby peptide) / TΔS / ΔG / ΔH / T∆S / ∆G / ∆H: 14-3-3ζ K49A in ITC cell; for n (binding stoichiometry of monomeric 14-3-3 and Cby peptide): 25°C, pH 6.8; for TΔS / ΔG / ΔH / T∆S / ∆G / ∆H: 298.15 K; for ΔΔG of binding, 14-3-3ζ K49A compared to WT 14-3-3ζ / effect of 14-3-3ζ K49A mutation on binding affinity (fold reduction): ITC; for ΔΔG of binding, 14-3-3ζ K49A compared to WT 14-3-3ζ: 18-mer peptides; for effect of 14-3-3ζ K49A mutation on binding affinity (fold reduction): versus WT 14-3-3ζ
T3 construct: His tag (TEV-cleavable) (N, cleaved yes); made in house
T3 sequence (P63104 1-245 K49A): T1 sequence (P63104 1-245) with K49A
Text: In numerous crystal structures of 14-3-3 proteins in complex with phosphorylated S/T peptides, the conserved K49 (numbering refers to the ζ isoform) side-chain is observed forming a hydrogen bond with the phosphate group on pS/pT (illustrated in S3 Fig with an elucidated 14-3-3ζ/Raf1 structure). With Cby’s S22 side-chain juxtaposed between 14-3-3ζ residues K49 and R56, the K49 side-chain is sterically hindered from contacting pS20. As such, we speculated that the increases in binding affinity to 14-3-3ζ observed for the S22P mutant peptides might be the result of the favorable contacts between K49 and pS20 facilitated by the proline-induced conformational changes. To test this, a K49A mutation was introduced into 14-3-3ζ and ITC titrations were performed with 18-mer WT and S22P Cby peptides.
as §2, §3

[1] = 50 mM sodium phosphate, 100 mM NaCl, 1 mM DTT, pH 6.8, one-site model, Table 1 set of duplicate experiments
[2] = pH 6.8, duplicate set (S1 Table)
[3] = pH 6.8, Table 1 set of duplicate experiments
[4] = 298.15 K, Table 1 set of duplicate experiments
[5] = 298.15 K, duplicate set (S1 Table)
[6] = Table 1 set of duplicate experiments

| Structure (SMILES) | n (binding stoichiometry of monomeric 14-3-3 and Cby peptide) (14-3-3ζ; [1]) | n (binding stoichiometry of monomeric 14-3-3 and Cby peptide) (14-3-3ζ; [2]) | T∆S (14-3-3ζ) [kcal/mol] | ∆G (14-3-3ζ) [kcal/mol] | ∆H (14-3-3ζ) [kcal/mol] | TΔS (14-3-3ζ) [kcal/mol] | ΔG (14-3-3ζ) [kcal/mol] | ΔH (14-3-3ζ) [kcal/mol] | n (binding stoichiometry of monomeric 14-3-3 and Cby peptide) (14-3-3ζΔC12; [3]) | n (binding stoichiometry of monomeric 14-3-3 and Cby peptide) (14-3-3ζΔC12; [2]) | TΔS (14-3-3ζΔC12; [4]) [kcal/mol] | ΔG (14-3-3ζΔC12; [4]) [kcal/mol] | ΔH (14-3-3ζΔC12; [4]) [kcal/mol] | T∆S (14-3-3ζΔC12; [5]) [kcal/mol] | ∆G (14-3-3ζΔC12; [5]) [kcal/mol] | ∆H (14-3-3ζΔC12; [5]) [kcal/mol] | n (binding stoichiometry of monomeric 14-3-3 and Cby peptide) (14-3-3ζ K49A; [6]) | n (binding stoichiometry of monomeric 14-3-3 and Cby peptide) (14-3-3ζ K49A; duplicate set (S1 Table)) | TΔS (14-3-3ζ K49A; [6]) [kcal/mol] | ΔG (14-3-3ζ K49A; [6]) [kcal/mol] | further results |
| --- | --- | --- | --- | --- | --- | --- | --- | --- | --- | --- | --- | --- | --- | --- | --- | --- | --- | --- | --- | --- | --- |
| CC(C)C[C@H](NC(=O)[C@H](CC(N)=O)NC(=O)[C@H](CO)NC(=O)[C@H](CC(C)C)NC(=O)[C@H](COP(=O)(O)O)NC(=O)[C@H](C)NC(=O)[C@H](CO)NC(=O)[C@H](CCCCN)NC(=O)[C@H](CCCNC(=N)N)NC(=O)[C@@H]1CCCN1C(=O)[C@@H]1CCCN1C(=O)[C@@H](NC(=O)[C@@H](N)CCCCN)[C@@H](C)O)C(=O)O [Cby 13-mer] (H-KTPPRKSA[pS]LSNL-OH) | 1.00 | 1.07 | 4.07 | -6.67 ± 0.02 | -2.60 ± 0.03 | 3.97 | -6.60 ± 0.02 | -2.63 ± 0.02 | 0.99 | 1.06 | 4.50 | -6.58 ± 0.04 | -2.08 ± 0.03 | 4.52 | -6.60 ± 0.02 | -2.08 ± 0.03 | – | – | – | – | Kd (14-3-3ζ; 50 mM sodium phosphate, 100 mM NaCl, 1 mM DTT, pH 6.8, duplicate set (S1 Table)): 12.8 ± 0.5 µM; Kd (14-3-3ζ; [1]): 14.5 ± 0.6 µM; Kd (14-3-3ζΔC12; 298.15 K, pH 6.8, duplicate set (S1 Table)): 14.5 ± 0.6 µM |
| CC(C)C[C@H](NC(=O)[C@H](CO)NC(=O)[C@H](Cc1c[nH]cn1)NC(=O)[C@H](CC(C)C)NC(=O)[C@H](CC(N)=O)NC(=O)[C@@H]1CCCN1C(=O)[C@H](CC(C)C)NC(=O)[C@H](COP(=O)(O)O)NC(=O)[C@H](C)NC(=O)[C@H](CO)NC(=O)[C@H](CCCCN)NC(=O)[C@H](CCCNC(=N)N)NC(=O)[C@@H]1CCCN1C(=O)[C@@H]1CCCN1C(=O)[C@@H](NC(=O)[C@@H](N)CCCCN)[C@@H](C)O)C(=O)N[C@@H](CC(=O)O)C(=O)N[C@@H](CCCNC(=N)N)C(=O)O [Cby 18-mer S22P] (H-KTPPRKSA[pS]LPNLHSLDR-OH) | 1.05 | 1.08 | 0.79 | -8.76 ± 0.02 | -7.97 ± 0.01 | 0.76 | -8.79 ± 0.02 | -8.03 ± 0.02 | – | – | – | – | – | – | – | – | 1.07 | 0.97 | 0.67 | -7.80 ± 0.06 | fold tighter binding than the S22P 7-mer (14-3-3ζ): ~ 9 fold; ΔH (14-3-3ζ K49A; [6]): -7.13 ± 0.03 kcal/mol; T∆S (14-3-3ζ K49A; duplicate set (S1 Table)): 1.17 kcal/mol; ∆G (14-3-3ζ K49A; duplicate set (S1 Table)): -7.84 ± 0.03 kcal/mol; ∆H (14-3-3ζ K49A; duplicate set (S1 Table)): -6.67 ± 0.04 kcal/mol; ΔΔG of binding, 14-3-3ζ K49A compared to WT 14-3-3ζ (14-3-3ζ K49A): ~ 1.0 kcal/mol; effect of 14-3-3ζ K49A mutation on binding affinity (fold reduction) (14-3-3ζ K49A): ~ 5 fold |
| CC(C)C[C@H](NC(=O)[C@H](COP(=O)(O)O)NC(=O)[C@H](C)NC(=O)[C@H](CO)NC(=O)[C@H](CCCCN)NC(=O)[C@H](CCCNC(=N)N)NC(=O)[C@@H]1CCCN1C(=O)[C@@H]1CCCN1C(=O)[C@@H](NC(=O)[C@@H](N)CCCCN)[C@@H](C)O)C(=O)N[C@@H](CO)C(=O)N[C@@H](CC(N)=O)C(=O)N[C@@H](CC(C)C)C(=O)N[C@@H](Cc1c[nH]cn1)C(=O)N[C@@H](CO)C(=O)N[C@@H](CC(C)C)C(=O)N[C@@H](CC(=O)O)C(=O)N[C@@H](CCCNC(=N)N)C(=O)O [Cby 18-mer] (H-KTPPRKSA[pS]LSNLHSLDR-OH) | 0.96 | 0.94 | 2.91 | -7.24 ± 0.04 | -4.33 ± 0.06 | 2.93 | -7.28 ± 0.03 | -4.35 ± 0.05 | 1.04 | 1.02 | 3.70 | -7.05 ± 0.03 | -3.35 ± 0.06 | 3.77 | -6.92 ± 0.03 | -3.15 ± 0.04 | 1.01 | 1.07 | 3.23 | -7.39 ± 0.05 | greater affinity compared to the Cby 7-mer (fold, in words) (14-3-3ζ): nine-fold; ΔH (14-3-3ζ K49A; [6]): -4.16 ± 0.05 kcal/mol; T∆S (14-3-3ζ K49A; duplicate set (S1 Table)): 3.41 kcal/mol; ∆G (14-3-3ζ K49A; duplicate set (S1 Table)): -7.17 ± 0.06 kcal/mol; ∆H (14-3-3ζ K49A; duplicate set (S1 Table)): -3.76 ± 0.07 kcal/mol; ΔΔG of binding, 14-3-3ζ K49A compared to WT 14-3-3ζ (14-3-3ζ K49A): ~ 0.1 kcal/mol; effect of 14-3-3ζ K49A mutation on binding affinity (fold reduction) (14-3-3ζ K49A): does not affect |

Source: PMC4409382, “Structural Analysis of the 14-3-3ζ/Chibby Interaction Involved in Wnt/β-Catenin Signaling” (PLoS ONE, 2015)
